In brackets after ≈: the same amount, converted by molar mass. Like-named read-outs stand apart in the source and are kept apart here. One block for each molecule: values may come before it.
Assays:
E. coli = assay: etest on agar containing the booster; type: cell-based; conditions: Escherichia coli
Source text: (§1) The corresponding tests are made based on the usual MIC test: the etest® (Biomerieux) strip is deposited onto the surface of a seeded agar medium in which the booster has been incorporated. This test enables solvent effect risks, that is a possible interaction with the solvent used in vitro, to be minimised.
(§2) The control corresponds to the test made without cineol. A control is made in each solvent tested: distilled water, Tween/water and DMSO. • ED control=antibiotic alone in distilled water • DMSO control=antibiotic alone in DMSO • TE control=antibiotic alone in Tween® 80

Pasteurella = assay: etest on agar containing the booster; type: cell-based
Source text: The corresponding tests are made based on the usual MIC test: the etest® (Biomerieux) strip is deposited onto the surface of a seeded agar medium in which the booster has been incorporated.
as §2
Other e-tests are also made on Pasteurella.

Staphylococcus = assay: etest on agar containing the booster; type: cell-based; conditions: MRSA 10178
Source text: as §1, §2

[1] = mouse, intravenous; cited from earlier work
[2] = orally; two mammal species (cats and rats); cited from earlier work
MSSA 8238 = conditions: Sc.; gentamycin 6 mg/kg or amoxicillin 30 mg/kg, cineol 30 mg/kg where present
Method: To Balb/c mice, is injected (Sc.) the antimicrobial product or the antimicrobial+booster mixture.
At different post-injection times, the mice are euthanised, and blood sampled, heparined and centrifuged to extract plasma thereof
Antibacterial effects are measured after 24 h incubation. The successive dilutions enable the antimicrobial effect to be determined and compared with the MIC. The efficient concentration/MIC ratio is thus determined.

[3] = Coli 8150, Cineol 1 mg DMSO, read-out: MIC
[4] = Coli 8150, Cineol 1 mg Tween/water, read-out: MIC
[5] = Coli 8150, Cineol 4 mg DMSO, read-out: MIC
[6] = Coli 8150, Cineol 4 mg Tween/water, read-out: MIC
[7] = Coli 8150, Cineol 16 mg DMSO, read-out: MIC
[8] = Coli 8150, Cineol 16 mg Tween/water, read-out: MIC
[9] = Coli 8150, DMSO control (antibiotic alone), read-out: MIC
[10] = Coli 8150, ED control (antibiotic alone in distilled water), read-out: MIC
[11] = Coli 8150, Tween water control (antibiotic alone), read-out: MIC
[12] = strain 14012, 5 mg cineol water
[13] = strain 14012, 10 mg cineol DMSO
[14] = strain 14012, 10 mg cineol water
[15] = strain 14014, 5 mg cineol water
[16] = strain 14014, 10 mg cineol DMSO
[17] = strain 14014, 10 mg cineol water
[18] = DMSO control (antibiotic alone)
[19] = ED control (antibiotic alone in distilled water)
[20] = Tween water control (antibiotic alone)

MIC (Staphylococcus; Cineol 1 mg DMSO): 0.75^+ mg/L | MIC (Staphylococcus; Cineol 1 mg Tween/water): 0.5 µg/mL (≈ 1.5 µM) | MIC (Staphylococcus; Cineol 4 mg DMSO): 0.5^+ mg/L | MIC (Staphylococcus; Cineol 4 mg Tween/water): 0.38^+ mg/L | MIC (Staphylococcus; Cineol 16 mg DMSO): 0.19^+ mg/L | MIC (Staphylococcus; Cineol 16 mg Tween/water): 0.125^+ mg/L | MIC (Staphylococcus; [18]): 1.5 µg/mL (≈ 4.49 µM) | MIC (Staphylococcus; [19]): 1 µg/mL (≈ 2.99 µM) | MIC (Staphylococcus; [20]): 0.5 µg/mL (≈ 1.5 µM)
Molecule: CC1(C)S[C@@H]2[C@H](NC(=O)Cc3ccccc3)C(=O)N2[C@H]1C(=O)O [Penicillin G]

MIC (E. coli; [3]): 0.064 µg/mL (≈ 0.167 µM) | MIC (E. coli; [4]): 0.064 µg/mL (≈ 0.167 µM) | MIC (E. coli; [5]): 0.064 µg/mL (≈ 0.167 µM) | MIC (E. coli; [6]): 0.047 µg/mL (≈ 0.123 µM) | MIC (E. coli; [7]): 0.064 µg/mL (≈ 0.167 µM) | MIC (E. coli; [8]): 0.1 µg/mL (≈ 0.261 µM) | MIC (E. coli; [9]): 0.094 µg/mL (≈ 0.245 µM) | MIC (E. coli; [10]): 0.047 µg/mL (≈ 0.123 µM) | MIC (E. coli; [11]): 0.094 µg/mL (≈ 0.245 µM) | MIC (e-test) (Pasteurella; strain 14012, 5 mg cineol DMSO): 0.006 µg/mL (≈ 0.0156 µM) | MIC (e-test) (Pasteurella; strain 14012, 5 mg cineol TE): 0.008 µg/mL (≈ 0.0209 µM) | MIC (e-test) (Pasteurella; [12]): 0.006 µg/mL (≈ 0.0156 µM) | MIC (e-test) (Pasteurella; [13]): 0.006 µg/mL (≈ 0.0156 µM) | MIC (e-test) (Pasteurella; strain 14012, 10 mg cineol TE): 0.008 µg/mL (≈ 0.0209 µM) | MIC (e-test) (Pasteurella; [14]): 0.008 µg/mL (≈ 0.0209 µM) | MIC (e-test) (Pasteurella; strain 14012, DMSO control): 0.008 µg/mL (≈ 0.0209 µM) | MIC (e-test) (Pasteurella; strain 14012, ED control): 0.008 µg/mL (≈ 0.0209 µM) | MIC (e-test) (Pasteurella; strain 14012, TE control): 0.023 µg/mL (≈ 0.06 µM) | MIC (e-test) (Pasteurella; strain 14014, 5 mg cineol DMSO): 0.012 µg/mL (≈ 0.0313 µM) | MIC (e-test) (Pasteurella; strain 14014, 5 mg cineol TE): 0.016 µg/mL (≈ 0.0417 µM) | MIC (e-test) (Pasteurella; [15]): 0.016 µg/mL (≈ 0.0417 µM) | MIC (e-test) (Pasteurella; [16]): 0.016 µg/mL (≈ 0.0417 µM) | MIC (e-test) (Pasteurella; strain 14014, 10 mg cineol TE): 0.012 µg/mL (≈ 0.0313 µM) | MIC (e-test) (Pasteurella; [17]): 0.016 µg/mL (≈ 0.0417 µM) | MIC (e-test) (Pasteurella; strain 14014, DMSO control): 0.016 µg/mL (≈ 0.0417 µM) | MIC (e-test) (Pasteurella; strain 14014, ED Control): 0.012 µg/mL (≈ 0.0313 µM) | MIC (e-test) (Pasteurella; strain 14014, TE control): 0.012 µg/mL (≈ 0.0313 µM)
Molecule: C[C@@H](O)[C@H]1C(=O)N2C(C(=O)O)=C(S[C@@H]3CN[C@H](C(=O)N(C)C)C3)[C@H](C)[C@H]12 [Meropenem]

MIC (Staphylococcus; Cineol 1 mg DMSO, read-out: MIC): 0.094 µg/mL (≈ 0.221 µM) | MIC (Staphylococcus; Cineol 1 mg Tween/water, read-out: MIC): 0.064 µg/mL (≈ 0.151 µM) | MIC (Staphylococcus; Cineol 4 mg DMSO, read-out: MIC): 0.064 µg/mL (≈ 0.151 µM) | MIC (Staphylococcus; Cineol 4 mg Tween/water, read-out: MIC): 0.064 µg/mL (≈ 0.151 µM) | MIC (Staphylococcus; Cineol 16 mg DMSO, read-out: MIC): 0.047 µg/mL (≈ 0.111 µM) | MIC (Staphylococcus; Cineol 16 mg Tween/water, read-out: MIC): 0.047 µg/mL (≈ 0.111 µM) | MIC (Staphylococcus; DMSO control (antibiotic alone), read-out: MIC): 0.064 µg/mL (≈ 0.151 µM) | MIC (Staphylococcus; ED control (antibiotic alone in distilled water), read-out: MIC): 0.094 µg/mL (≈ 0.221 µM) | MIC (Staphylococcus; Tween water control (antibiotic alone), read-out: MIC): 0.19 µg/mL (≈ 0.447 µM)
Molecule: CCC[C@@H]1C[C@@H](C(=O)N[C@@H]([C@H]2O[C@H](SC)[C@H](O)[C@@H](O)[C@H]2O)[C@H](C)Cl)N(C)C1 [Clindamycin]

More lines, now with the values behind:

Molecule: CO[C@@]1(NC(=O)Cc2cccs2)C(=O)N2C(C(=O)O)=C(COC(N)=O)CS[C@@H]21 [Cefoxitin]
MIC (E. coli; Coli 8138 (penicillinase), Cineol 1 mg DMSO, read-out: MIC): 4 µg/mL (≈ 9.36 µM) | MIC (E. coli; Coli 8138 (penicillinase), Cineol 1 mg Tween/water, read-out: MIC): 4 µg/mL (≈ 9.36 µM) | MIC (E. coli; Coli 8138 (penicillinase), Cineol 4 mg DMSO, read-out: MIC): 4 µg/mL (≈ 9.36 µM) | MIC (E. coli; Coli 8138 (penicillinase), Cineol 4 mg Tween/water, read-out: MIC): 3 µg/mL (≈ 7.02 µM) | MIC (E. coli; Coli 8138 (penicillinase), Cineol 16 mg DMSO, read-out: MIC): 4 µg/mL (≈ 9.36 µM) | MIC (E. coli; Coli 8138 (penicillinase), Cineol 16 mg Tween/water, read-out: MIC): 1 µg/mL (≈ 2.34 µM) | MIC (E. coli; Coli 8138 (penicillinase), DMSO control (antibiotic alone), read-out: MIC): 6 µg/mL (≈ 14 µM) | MIC (E. coli; Coli 8138 (penicillinase), ED control (antibiotic alone in distilled water), read-out: MIC): 6 µg/mL (≈ 14 µM) | MIC (E. coli; Coli 8138 (penicillinase), Tween water control (antibiotic alone), read-out: MIC): 6 µg/mL (≈ 14 µM) | MIC (E. coli; [3]): 8 µg/mL (≈ 18.7 µM) | MIC (E. coli; [4]): 3 µg/mL (≈ 7.02 µM) | MIC (E. coli; [5]): 3 µg/mL (≈ 7.02 µM) | MIC (E. coli; [6]): 3 µg/mL (≈ 7.02 µM) | MIC (E. coli; [7]): 3 µg/mL (≈ 7.02 µM) | MIC (E. coli; [8]): 1 µg/mL (≈ 2.34 µM) | MIC (E. coli; [9]): 8 µg/mL (≈ 18.7 µM) | MIC (E. coli; [10]): 3 µg/mL (≈ 7.02 µM) | MIC (E. coli; [11]): 6 µg/mL (≈ 14 µM) | MIC (e-test) (Pasteurella; strain 14012, 5 mg cineol DMSO): 0.5 µg/mL (≈ 1.17 µM) | MIC (e-test) (Pasteurella; strain 14012, 5 mg cineol TE): 0.5 µg/mL (≈ 1.17 µM) | MIC (e-test) (Pasteurella; [12]): 0.5 µg/mL (≈ 1.17 µM) | MIC (e-test) (Pasteurella; [13]): 0.38 µg/mL (≈ 0.889 µM) | MIC (e-test) (Pasteurella; strain 14012, 10 mg cineol TE): 0.5 µg/mL (≈ 1.17 µM) | MIC (e-test) (Pasteurella; [14]): 0.5 µg/mL (≈ 1.17 µM) | MIC (e-test) (Pasteurella; strain 14012, DMSO control): 0.5 µg/mL (≈ 1.17 µM) | MIC (e-test) (Pasteurella; strain 14012, ED control): 0.5 µg/mL (≈ 1.17 µM) | MIC (e-test) (Pasteurella; strain 14012, TE control): 0.75 µg/mL (≈ 1.75 µM) | MIC (e-test) (Pasteurella; strain 14014, 5 mg cineol DMSO): 0.19 µg/mL (≈ 0.444 µM) | MIC (e-test) (Pasteurella; strain 14014, 5 mg cineol TE): 0.38 µg/mL (≈ 0.889 µM) | MIC (e-test) (Pasteurella; [15]): 0.5 µg/mL (≈ 1.17 µM) | MIC (e-test) (Pasteurella; [16]): 0.5 µg/mL (≈ 1.17 µM) | MIC (e-test) (Pasteurella; strain 14014, 10 mg cineol TE): 0.38 µg/mL (≈ 0.889 µM) | MIC (e-test) (Pasteurella; [17]): 0.38 µg/mL (≈ 0.889 µM) | MIC (e-test) (Pasteurella; strain 14014, DMSO control): 0.38 µg/mL (≈ 0.889 µM) | MIC (e-test) (Pasteurella; strain 14014, ED Control): 0.38 µg/mL (≈ 0.889 µM) | MIC (e-test) (Pasteurella; strain 14014, TE control): 0.5 µg/mL (≈ 1.17 µM)

Molecule: CN(C)c1cc(NC(=O)CNC(C)(C)C)c(O)c2c1C[C@H]1C[C@H]3[C@H](N(C)C)C(O)=C(C(N)=O)C(=O)[C@@]3(O)C(O)=C1C2=O [Tigecycline]
MIC (E. coli; Coli 8150, Cineol 1 mg DMSO): 0.19 µg/mL (≈ 0.324 µM) | MIC (E. coli; Coli 8150, Cineol 1 mg Tween/water): 0.125 µg/mL (≈ 0.213 µM) | MIC (E. coli; Coli 8150, Cineol 4 mg DMSO): 0.125 µg/mL (≈ 0.213 µM) | MIC (E. coli; Coli 8150, Cineol 4 mg Tween/water): 0.094 µg/mL (≈ 0.161 µM) | MIC (E. coli; Coli 8150, Cineol 16 mg DMSO): 0.064 µg/mL (≈ 0.109 µM) | MIC (E. coli; Coli 8150, Cineol 16 mg Tween/water): 0.1 µg/mL (≈ 0.171 µM) | MIC (E. coli; Coli 8150, DMSO control (antibiotic alone)): 0.19 µg/mL (≈ 0.324 µM) | MIC (E. coli; Coli 8150, ED control (antibiotic alone in distilled water)): 0.125 µg/mL (≈ 0.213 µM) | MIC (E. coli; Coli 8150, Tween water control (antibiotic alone)): 0.125 µg/mL (≈ 0.213 µM) | MIC (Staphylococcus; Cineol 1 mg DMSO): 0.19 µg/mL (≈ 0.324 µM) | MIC (Staphylococcus; Cineol 1 mg Tween/water): 0.125 µg/mL (≈ 0.213 µM) | MIC (Staphylococcus; Cineol 4 mg DMSO): 0.19 µg/mL (≈ 0.324 µM) | MIC (Staphylococcus; Cineol 4 mg Tween/water): 0.094 µg/mL (≈ 0.161 µM) | MIC (Staphylococcus; Cineol 16 mg DMSO): 0.125 µg/mL (≈ 0.213 µM) | MIC (Staphylococcus; Cineol 16 mg Tween/water): 0.094 µg/mL (≈ 0.161 µM) | MIC (Staphylococcus; [18]): 0.25 µg/mL (≈ 0.427 µM) | MIC (Staphylococcus; [19]): 0.125 µg/mL (≈ 0.213 µM) | MIC (Staphylococcus; [20]): 0.125 µg/mL (≈ 0.213 µM)

Molecule: Cc1ccc(C(C)C)cc1O [carvacrol]
LD 50 [1]: 80 mg/kg | lowest letal dose [2]: 100 mg/kg

Molecule: gentamycin
Time spent beyond the MIC (MSSA 8238): <5 h

Source: US10668043B2, “Potentiated antimicrobial agents” (priority 2014, dated 2020)
